What was measured:
Assay type in all cases: cell-based
HKe-3 (K-RAS^−/+) = assay: Cell viability (Syto60); settings: 72 hours; for cooperation with / sensitization to AZ-628 (cell viability): K-RAS wild-type cells (HKe-3), 1 µM AZ-628
Description: (§1) All colon cancer cell lines were maintained in DMEM supplemented with penicillin (100 units/mL), streptomycin (100 μg/mL), and 10% fetal bovine serum (FBS). The rectal cancer cell line (Car1) was maintained in DMEM/F12 supplemented with penicillin (100 units/mL)/streptomycin (50 μg/mL), and 5% FBS. […] The target sequences for knockdowns can be found in Table S2. In drug treatment experiments, cells were plated for 24 hours prior to exposure to drug. AZ-628 was obtained from AstraZeneca. CI-1040 was obtained from Pfizer. R406 was synthesized in the Gray laboratory. BAY61-3606 and IKK VII were purchased from EMD Biosciences. BAY derivatives were synthesized for this study.
(§2) Cell cycle analysis was performed via FACS-based propidium iodide quantification, using standard methods. To measure cell viability, cells were grown in 96-well plates in the presence or absence of drug for 72 hours, fixed with 4% paraformaldehyde, and then stained with Syto60 (Invitrogen). Plates were imaged and quantified using the LiCor Odyssey system (LiCor).

HCT-116 (K-RAS^G13D/+) = assay: Cell viability (Syto60); settings: 72 hours, HCT-116 compared to HKe-3, normalized to DMSO
Description: as §1, §2

[1] = tested on: colorectal cancer cells expressing mutant B-RAF (V600E) (HT-29, RKO); assay: Cell viability (Syto60); settings: HT-29 and RKO, 72 hours
Description: as §1, §2

HT-29 (B-RAF^V600E/+) = assay: Cell cycle analysis (propidium iodide FACS); settings: cell lines that express mutant B-RAF (HT-29)
Description: as §2

DKs-8 = assay: Cell viability (Syto60); settings: DKs-8, 72 hours, 1 μM
Description: as §1, §2

DLD-1 cells = assay: Cell viability (Syto60); settings: DLD-1, 72 hours, 1 μM
Description: as §1, §2

[2] = tested on: phospho-MEK1 (Ser217/Ser221) and phospho-ERK1/2 (Thr202/Tyr204, Thr185/Tyr187); assay: Bio-Plex phospho-MEK1 and phospho-ERK1/2; settings: 45 minute exposure, 1 µM, K-RAS wild-type and mutant cells
Description: (§3) The Bio-Plex assay system was used to measure signaling in drug-treated cells. Briefly, cells were incubated in the presence of drug for various amounts of time and then lysed in Bio-Rad cell lysis buffer (Bio-Rad). Protein quantification was performed using BCA assay (Pierce) and 5 µg of protein from each sample was used for Bio-Plex analysis. Phospho-signaling assays were performed using available phospho-signaling assay kits and quantified on a Bio-Plex 200 system (Bio-Rad): p-Iκβα (Ser32/Ser36), p-JNK (Thr183/Tyr185), p-MEK1 (Ser217/Ser221), p-ERK1/2 (Thr202/Tyr204, Thr185/Tyr187), p-p90RSK (Thr359/Ser363), p-p38 (Thr180/Tyr182), p-c-JUN (Ser63), p-ATF2 (Thr71), p-AKT (Ser473), p-S6 (Ser235/Ser236), p-STAT3 (Ser727), p-STAT3 (Tyr705), and p-GSK3α/β (Ser21/Ser9). Bio-Plex assay for total MEK1 was also performed as a loading control.

[3] = tested on: phospho-Iκβα (Ser32/Ser36); assay: Bio-Plex phospho-Iκβα; settings: HKe-3 cells, 1 µM
Description: as §3

[4] = tested on: phospho-JNK (Thr183/Tyr185); assay: Bio-Plex phospho-JNK; settings: HKe-3 cells, 1 µM
Description: as §3

O=C(c1ccc(Nc2nccc(-c3cc4ccccc4s3)n2)cc1)N1CCC(N2CCCC2)CC1 [IKK inhibitor VII]
sensitization to AZ-628 (cell viability) (HKe-3 (K-RAS^−/+); HKe-3 cells with MAP4K2 knockdown, 1 µM + 1 µM AZ-628): abrogated the ability of IKK inhibitor VII to sensitize | cooperation with / sensitization to AZ-628 (cell viability) (HKe-3 (K-RAS^−/+)): enhanced the effect of AZ-628

O=C(NOCC1CC1)c1ccc(F)c(F)c1Nc1ccc(I)cc1Cl [CI-1040]
sensitivity of cells expressing mutant K-RAS (cell viability) (HCT-116 (K-RAS^G13D/+)): insensitive | cell viability, combination of BAY61-3606 and CI-1040 [1]: cooperated to produce an enhanced response | sensitivity of cells expressing mutant B-RAF (cell viability) ([1]; single agent): sensitive | cell cycle effect (HT-29 (B-RAF^V600E/+)): induced G1 arrest

Oc1c2ccccc2c2c3c(cccc13)N=N2 [SP600125]
cooperation with / sensitization to AZ-628 (cell viability) (HKe-3 (K-RAS^−/+)): did not affect AZ-628 sensitivity

COc1cc(Nc2ncc(F)c(Nc3ccc4c(n3)NC(=O)C(C)(C)O4)n2)cc(OC)c1OC [R406]
sensitivity (cell viability) (DKs-8): did not exhibit sensitivity | sensitivity (cell viability) (DLD-1 cells): did not exhibit sensitivity

Cc1ccc(NC(=O)c2cccc(C(C)(C)C#N)c2)cc1Nc1ccc2ncn(C)c(=O)c2c1 [AZ-628]
sensitivity of cells expressing mutant K-RAS (cell viability) (HCT-116 (K-RAS^G13D/+)): relatively sensitive | MEK and ERK phosphorylation [2]: suppressed MEK and ERK phosphorylation | Iκβα phosphorylation [3]: further induced | JNK activation [4]: strongly activated
